Reference: article PMC9508239 (Nature Communications, 2022)

How the values were obtained:
IR [1] = assay: Functional IR levels in liver after treatment (Fig. S10e,f); format: in vivo, mouse
Procedure: (§1) The cells were incubated with the lysis buffer B [50 mM Hepes pH 7.4, 150 mM NaCl, 10% Glycerol, 1% Triton X-100, 1 mM EDTA, 100 mM sodium fluoride, 2 mM sodium orthovanadate, 20 mM sodium pyrophosphate, 0.5 mM dithiothreitol (DTT), 2 mM phenylmethylsulfonyl fluoride (PMSF)] supplemented with cOmplete Protease Inhibitor Cocktail (Roche), PhosSTOP (Sigma), and 25 U/ml turbo nuclease (Accelagen) on ice for 1 h. After centrifuging at 20,817×g at 4 °C for 10 min, the concentrations of cell lysate were measured using Micro BCA Protein Assay Kit (Thermo Scientific). About 50–60 μg total proteins were analyzed by SDS-PAGE and quantitative Western blotting. […] For quantitative western blots, anti-rabbit immunoglobulin G (IgG) (H + L) (WB, 1:5000; Dylight 800 conjugates, Cat. #5151) and anti-mouse IgG (H + L) (WB, 1:5000; Dylight 680 conjugates, Cat. #5470) (Cell Signaling) were used as secondary antibodies. […]
For the oral glucose tolerance test, mice were fasted for 6 h and their blood glucose levels (T = 0) were measured with tail bleeding using a glucometer (AlphaTRAK). […] Blood glucose levels were measured at the indicated time points after glucose administration. […]

IR [2] = assay: Insulin signaling in vivo, white adipose tissue (WAT); details: mouse epididymal WAT, vs vehicle
Procedure: as §1
Two to three months old male mice were fasted overnight. […] After centrifuging at 20,817×g at 4 °C for 30 min, the concentrations of cell lysate were measured using Micro BCA Protein Assay Kit (Thermo Scientific). The lysates were then analyzed by quantitative western blotting.

IR-D707A = assay: IR signaling (pY IR, pAKT, pERK) in IR-D707A MEFs; format: cell-based, mouse
Procedure: IR^F/F mice (Jackson #006955[71]) were crossed with CAG-CRE/ERT mice (Jackson #004682) to generate IR^F/F; CRE-ERT mice. The IR^F/F; CRE-ERT mice were backcrossed nine generations to C57BL/6 (Jackson #000664). The MEFs from IR^F/F; CRE-ERT mice were isolated as described earlier with some modifications. E14.5 embryos were minced with sterile scalpels and incubated with 0.25% trypsin-EDTA for 10 min at 37 °C and a 5% CO2 incubator. Fresh 0.25% trypsin-EDTA was added. After 10 min incubation, cells were put into fresh DMEM containing supplemented 10% (v/v) FBS, 2 mM L-glutamine, 55 μM β-mercaptoethanol, and 1% penicillin/streptomycin, and then centrifuged at 290×g for 5 min. After the supernatant was removed, the cells were resuspended in the DMEM and incubated at 37 °C and 5% CO2 incubator. The medium was changed the next day to remove debris and floating cells.
Viral supernatants were collected at 2 days and 3 days after transfection, concentrated with a concentrator, and added to IR^F/F; CRE-ERT MEFs with 4 μg/ml of polybrene. Cells were selected with 2 μg/ml of puromycin 2 days after infection.
For the activation assay, the short isoform of human IR in pCS2-MYC was used as described previously[20],[49]. Plasmid transfections into 293FT cells were performed with Lipofectamin^TM 2000 (Invitrogen).
The cells were incubated with the lysis buffer B [50 mM Hepes pH 7.4, 150 mM NaCl, 10% Glycerol, 1% Triton X-100, 1 mM EDTA, 100 mM sodium fluoride, 2 mM sodium orthovanadate, 20 mM sodium pyrophosphate, 0.5 mM dithiothreitol (DTT), 2 mM phenylmethylsulfonyl fluoride (PMSF)] supplemented with cOmplete Protease Inhibitor Cocktail (Roche), PhosSTOP (Sigma), and 25 U/ml turbo nuclease (Accelagen) on ice for 1 h. After centrifuging at 20,817×g at 4 °C for 10 min, the concentrations of cell lysate were measured using Micro BCA Protein Assay Kit (Thermo Scientific). About 50–60 μg total proteins were analyzed by SDS-PAGE and quantitative Western blotting. The following antibodies were purchased from commercial sources: Anti-IR-pY1150/1151 (WB, 1:1000; 19H6; labeled as pY IR, Cat. #3024), anti-AKT (WB, 1:1000; 40D4, Cat. #2920), anti-pS473 AKT (WB, 1:1000; D9E, Cat. #4060), anti-ERK1/2 (WB, 1:1000; L34F12, Cat. #4696), anti-pERK1/2 (WB, […]; 197G2, Cat. #4377), anti-IRS1-pS616 (WB, 1:1000; C15H5, Cell Signaling, Cat. #3203); anti-IRS1 (WB, 1:1000; A301-158A, Bethyl Laboratory); anti-IR (WB, 1:500, CT-3, Santa Cruz; labeled as IR for primary hepatocytes and MEFs, Cat. #sc-57342); anti-IR (WB, 1:1000; EPR23566-103; labeled as IR for Fig. S10, ab278100, Abcam); anti-Myc (WB, 1:2000; 9E10, Cat. #11667149001, Roche; labeled as IR for 293FT cells). For quantitative western blots, anti-rabbit immunoglobulin G (IgG) (H + L) (WB, 1:5000; Dylight 800 conjugates, Cat. #5151) and anti-mouse IgG (H + L) (WB, 1:5000; Dylight 680 conjugates, Cat. #5470) (Cell Signaling) were used as secondary antibodies. The membranes were scanned with the Odyssey Infrared Imaging System (Li-COR, Lincoln, NE).

SREBP1 = assay: Nuclear translocation of SREBP1 in primary mouse hepatocytes; format: cell-based; details: 100 nM, 30 min
Procedure: Primary hepatocytes were isolated from 2-month-old male mice with a standard two-step collagenase perfusion procedure as described earlier with some modifications[24],[48],[49]. […] After 1–2 s upon the appearance of white spots in the liver, we cut the portal vein with scissors to wash out blood, and then the liver was perfused with 30 ml of Liver Digest Medium (Thermo Scientific, Cat. #17703034). The dissected liver was gently washed with low-glucose DMEM and transferred to a sterile culture dish containing 15 ml Liver Digest Medium. The isolated liver cells were filtered through the 70 μm cell strainer into a 50 ml tube. After centrifuging at 50×g for 5 min at 4 °C, cells were washed with cold low-glucose DMEM three times. […] After 2 h, the medium was changed to serum-free low-glucose DMEM.
Primary hepatocytes were described in the primary hepatocyte isolation section. […] Cells were fixed with 4% paraformaldehyde for 10 min. The fixed cells were incubated with PBS for 30 min and 3% BSA in PBS with 0.1% Triton X-100 (0.1% PBST) for 1 h, and then treated with anti-SREBP1 antibodies (20B12, Millipore, Cat. #MABS1987, 1:200) in 3% BSA in 0.1% PBST at 4 °C overnight. After being washed, cells were incubated with secondary antibodies (Alexa Fluor 488 goat anti-rabbit, Invitrogen, Cat. #A11008, 1:200) for 1 h. […]

For “insulin: native IR ligand used as comparator; Humulin in the in vivo tests”, the IR downregulation (IR [1]; 50U/kg, i.p., 3 consecutive days) was “not significantly downregulated”, the IR downregulation (IR [1]; one hour after insulin 0.1U/kg or S597 0.15U/kg) was “not significantly downregulated” and the “pAKT, WAT” value (IR [2]) was “significantly increased pAKT levels”. The “pERK, WAT” value (IR [2]) was “neither insulin nor S597 had a statistically significant effect on pERK levels”, the “phosphorylation of AKT” value (IR-D707A) was “greatly reduced” and the “phosphorylation of ERK” value (IR-D707A) was “greatly reduced”. The “phosphorylation of IR” value (IR-D707A) was “remarkedly reduced”, the pAKT (IR-D707A; high concentration of insulin) was “significantly increased pAKT and pERK” and the pERK (IR-D707A; high concentration of insulin) was “significantly increased pAKT and pERK”. The “nuclear translocation of SREBP1” value (SREBP1) was “stimulated to the same level by insulin and S597”.
